Laboratory results from patent US20260248969A1, “PEPTIDE MULTIMER PRODUCTS AND METHODS” (REGENTS OF THE UNIVERSITY OF MICHIGAN, priority 2023, published 2026).
Residues, ends and D or L forms follow the SMILES beside them. No end group written: not given here. *: point of attachment. IRDye800CW = CC1(C)C(/C=C/C2=C(Oc3ccc(S(=O)(=O)O)cc3)C(=C/C=C3/N(CCCCS(=O)(=O)O)c4ccc(S(=O)(=O)O)cc4C3(C)C)/CCC2)=[N+](CCCCCC(=O)*)c2ccc(S(=O)(=O)[O-])cc21

What was measured:
CD44 [1] = assay: Co-localization of peptide monomer and anti-CD44-AF488 binding to SK-Hep1 cells; conditions: SK-Hep1 human HCC cells
Procedure: Specific binding of the optimized IRDye800-labeled […] monomer peptide was substantiated using a co-localization of binding to known antibodies. Human Hep3B, HepG2, and Sk-Hep1 HCC cells that overexpress early-stage HCC targets were used. A Pearson's correlation coefficient ρ was calculated from fluorescence intensities on merged images. Measurements were made from n=10 cells chosen randomly from 3 slides. Data for CD44 is shown in FIG. 4A, and similar data was obtained for GPC3 and EpCAM. As shown in the figure, binding by WKG*-IRDye800 and anti-CD44-AF488 to the surface (arrows) of Sk-Hep1 cells co-localized with a correlation of p=0.81 measured on the merged image.

CD44 [2] = assay: Apparent dissociation constant by flow cytometry on SK-Hep1 cells; format: binding, human; conditions: 0-200 nM, R^2=0.99
Procedure: The equilibrium dissociation constant kd=1/ka was calculated by performing using a least square fit of the data to the non-linear equation I=(I0+Imaxka[X])/(I0+ka[X]). I0 and Imax are the initial and maximum fluorescence intensities, corresponding to no peptide and at saturation, respectively, and [X] represents the concentration of the bound peptide. Results are the mean values from 3 independent experiments.
The apparent dissociation constant (kd) of the IRDye800-labeled WKG* peptide monomer was measured to provide an estimate of binding affinity. The IRDye800-labeled monomer was incubated with human HCC cells over a range of concentrations. Fluorescence intensities were measured with flow cytometry. WKG*-IRDye800 was incubated with SK-Hep1 cells over concentrations ranging from 0-200 nM, and the fluorescence intensity was measured with flow cytometry.

[3] = mouse, in vivo, iv
Procedure: C) Serum stability of WKG*-IRDye800 (200 μM in 200 μL of PBS) in mice (n=5) was measured following intravenous injection. Serum was collected at various time points from 0-24 hours post-injection.
The optimized WKG* monomer labeled with IRDye800 was incubated in serum to determine half-life T1/2. Stability in mouse serum over time was measured using analytical RP-HPLC. The relative concentration was calculated from the area-under-the-peak, and the intensities were fit to a first order kinetic model, and the serum half-life T1/2 was determined.

[4] = test system: orthotopic HCC PDX tumors; assay: In vivo MR imaging of tumor uptake, orthotopic HCC PDX model; design: species or system mouse; conditions: peak uptake 0.5 hours post-injection, same tumor in n=3 mice
Procedure: (§1) In vivo imaging was performed to assess HCC tumor uptake, biodistribution, and clearance of the optimized multimer. […] The target-to-background (T/B) ratio for the multimer was ~1.8-fold greater than that for monomer and free Gd-DOTA from the same tumor in n=3 animals. The target region was segmented using the Chan-Vese algorithm. The background region was defined by dilating the target region. Clearance of the MR signal occurred after ~4 hours post-injection. Data from whole body NIR fluorescence images collected in vivo from the orthotopic HCC tumor following intravenous injection of the lead candidate EpCAM target and control peptides is shown in FIG. 6C. […] For the differences and variances shown in FIG. 60, the power is >95% to obtain P<0.01 for target versus control using n=8 mice per group.
In vivo tumor uptake of the peptide multimer was evaluated in an orthotopic HCC PDX mouse model using T1-weighted MR images. The Gd-DOTA labeled peptide multimer and peptide monomers specific for GPC3, CD44, and EpCAM were intravenously injected at a concentration of 300 μM in 200 μL of PBS via the tail vein of mice bearing orthotopic PDX tumors, FIG. 13A-E. Gd-DOTA (300 μM in 200 μL PBS) was also intravenously injected as a control. T1-weighted MR images were acquired using a 7T horizontal bore small animal magnet (SGRAD 205/120/HD/S, Agilent Technologies). […]

[5] = test system: orthotopic HCC PDX tumors; assay: In vivo whole body NIR fluorescence imaging of orthotopic HCC PDX tumors; design: species or system mouse; conditions: P<1×10^−4 by paired t-test
Procedure: as §1

[6] = molecular target: T1, CD44 (cluster of differentiation 44) (human, UniProt P16070 21-742); assay: quantified fluorescence on CCA-156 cells, 5 uM; multimer signal comes from cells that carry GPC3, CD44 and EpCAM
T1 construct: whole, on cells; Endogenous target on human HCC cells and tissues; no recombinant protein was used
Procedure: (§2) Approximately 10³ CCA-156 cells were grown on the cover glass in a 24-well plate to ~90% confluence. The cells were washed with PBS twice and incubated with 5 μM of either Cy5.5-labeled peptide multimer or peptide monomer for 5 min on ice. The cells were then washed with PBS for 3X, fixed with 4% paraformaldehyde (PFA) in PBS for 15 min, washed with PBS for twice, then mounted on glass slides with ProLong Gold reagent containing DAPI (Invitrogen).

Glypican-3 (GPC3) = molecular target: T2, Glypican-3 (GPC3) (human, UniProt P51654 25-554); assay: as above
T2 construct: whole, on cells; Endogenous target on human HCC cells and tissues
Procedure: as §2

[7] = molecular target: T3, Epithelial cell adhesion molecule (EpCAM) (human, UniProt P16422 24-314); assay: as above
T3 construct: whole, on cells; Endogenous target on human HCC cells and tissues
T3 sequence (looked up): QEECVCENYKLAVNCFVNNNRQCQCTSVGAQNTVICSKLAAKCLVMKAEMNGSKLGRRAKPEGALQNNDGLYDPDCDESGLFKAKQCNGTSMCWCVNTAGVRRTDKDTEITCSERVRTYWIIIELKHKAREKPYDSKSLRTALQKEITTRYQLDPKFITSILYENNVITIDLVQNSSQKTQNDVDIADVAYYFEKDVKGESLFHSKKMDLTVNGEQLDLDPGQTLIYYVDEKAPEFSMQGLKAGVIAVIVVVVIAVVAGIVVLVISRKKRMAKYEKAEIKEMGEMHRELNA
Procedure: as §2

T1 sequence (P16070 21-742): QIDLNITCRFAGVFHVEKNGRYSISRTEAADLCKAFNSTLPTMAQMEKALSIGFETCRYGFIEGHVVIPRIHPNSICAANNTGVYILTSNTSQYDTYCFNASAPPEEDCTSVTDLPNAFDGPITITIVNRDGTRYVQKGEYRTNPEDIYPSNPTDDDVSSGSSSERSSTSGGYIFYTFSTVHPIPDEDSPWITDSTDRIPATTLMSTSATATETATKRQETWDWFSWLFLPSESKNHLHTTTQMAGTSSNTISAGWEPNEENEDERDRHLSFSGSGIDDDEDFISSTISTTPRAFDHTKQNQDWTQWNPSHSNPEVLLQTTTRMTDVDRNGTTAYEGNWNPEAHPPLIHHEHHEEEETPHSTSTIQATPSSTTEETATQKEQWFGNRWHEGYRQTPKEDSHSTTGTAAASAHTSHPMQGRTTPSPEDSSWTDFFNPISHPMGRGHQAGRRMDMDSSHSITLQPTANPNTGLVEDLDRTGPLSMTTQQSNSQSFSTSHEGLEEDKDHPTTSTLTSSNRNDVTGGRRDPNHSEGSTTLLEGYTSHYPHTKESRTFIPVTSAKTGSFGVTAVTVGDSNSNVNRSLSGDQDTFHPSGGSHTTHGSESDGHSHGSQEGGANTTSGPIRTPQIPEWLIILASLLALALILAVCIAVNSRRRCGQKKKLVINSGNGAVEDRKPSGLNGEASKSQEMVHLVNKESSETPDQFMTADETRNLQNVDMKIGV
T2 sequence (P51654 25-554 limits assumed): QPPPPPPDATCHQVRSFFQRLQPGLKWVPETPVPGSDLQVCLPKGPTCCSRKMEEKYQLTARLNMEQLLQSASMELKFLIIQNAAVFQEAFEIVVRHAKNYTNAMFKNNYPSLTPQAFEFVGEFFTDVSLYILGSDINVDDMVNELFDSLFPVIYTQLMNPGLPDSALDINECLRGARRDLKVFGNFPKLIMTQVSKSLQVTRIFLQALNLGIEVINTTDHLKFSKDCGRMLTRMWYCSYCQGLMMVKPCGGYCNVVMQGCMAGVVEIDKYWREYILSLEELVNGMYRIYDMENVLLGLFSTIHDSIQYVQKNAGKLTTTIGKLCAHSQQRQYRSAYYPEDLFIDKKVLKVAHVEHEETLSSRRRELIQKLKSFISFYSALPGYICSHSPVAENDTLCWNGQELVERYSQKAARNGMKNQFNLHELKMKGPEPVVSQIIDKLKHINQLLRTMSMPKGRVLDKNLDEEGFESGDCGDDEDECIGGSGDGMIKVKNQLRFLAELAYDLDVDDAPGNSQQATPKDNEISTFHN

CC(C)C[C@H](NC(=O)[C@H](Cc1ccc(O)cc1)NC(=O)[C@H](CO)NC(=O)[C@H](Cc1c[nH]c2ccccc12)NC(=O)CNC(=O)[C@H](CCCCN)NC(=O)[C@@H](N)Cc1c[nH]c2ccccc12)C(=O)N[C@@H](Cc1c[nH]c2ccccc12)C(=O)N[C@H](C(=O)N[C@@H](CCC(N)=O)C(=O)N[C@@H](CCC(N)=O)C(=O)N[C@@H](C)C(=O)NCC(=O)NCC(=O)NCC(=O)N[C@@H](CO)C(=O)N[C@@H](CCCCNC(=O)CCCCCN1C(=CC=C2CCCC(C=CC3=[N+](CCCCS(=O)(=O)[O-])c4ccc(S(=O)(=O)O)cc4C3(C)C)=C2Oc2ccc(S(=O)(=O)O)cc2)C(C)(C)c2cc(S(=O)(=O)O)ccc21)C(N)=O)[C@@H](C)O [WKG*-IRDye800] (H-WKGWSYLWTQQAGGGSK(IRDye800CW)-NH2)
binding to the surface of SK-Hep1 cells (CD44 [1]): bind intensely
Pearson's correlation coefficient, peptide and anti-CD44-AF488 (CD44 [1]; merged image): 0.81
Kd (CD44 [2]): 43 nM
half-life [3]: 5.1 h

O=C([O-])CN1CCN(CC(=O)[O-])CCN(CC(=O)O)CCN(CC(=O)[O-])CC1.[Gd+3] [free Gd-DOTA, Gd-DOTA]
T/B ratio [4]: 0.99±0.04

HPD*-IRDye800: lead EpCAM peptide HPDMFTRTHSHN (SEQ ID NO: 7) labeled with IRDye800 (also: IRDye800 label, site not given here)
NIR fluorescence intensity versus control PFH*-IRDye800 [5]: significantly greater

B1: Cy5.5-labeled peptide multimer (ALL*, WKG* and HPD* on a tri-lysine linker) (designed binder)
peptide 1: ALLANHEELFQT
peptide 2: WKGWSYLWTQQA
peptide 3: HPDMFTRTHSHN
modifications: also: each peptide joined through PEG3 extension to a tri-lysine linker, Cy5.5 label, site not given here
notes: also called Cy5.5-labeled multimer; not shown: The branched tri-lysine linker with PEG3 extensions and the Cy5.5 label
fold increase of fluorescence intensity versus the CD44 monomer WKG*-Cy5.5 [6]: 1.84 fold
fold increase of fluorescence intensity versus the GPC3 monomer ALL*-Cy5.5 (Glypican-3 (GPC3)): 5.48 fold
fold increase of fluorescence intensity versus the EpCAM monomer HPD*-Cy5.5 [7]: 2 fold
